Measured values from patent US20250296971A1, “GASTRIC INHIBITORY PEPTIDE RECEPTOR LIGANDS” (priority 2021, published 2025).
*1 amine or outer side, *2 acyl side, *3 side chain or, on linkers, in order; H or OH if unused. Where a SMILES comes first, the peptide text is derived from it. Bridges are numbered along the chain shown (N, C = ends). [ ]: non-standard residue; d: D form. The star is where a group is joined. X5 = NC(=O)[C@H](CCCCNC(=O)CN1CCN(CC(=O)O)CCN(CC(=O)O)CCN(CC(=O)O)CC1)NC(=O)CCC(=O)NCCCOCCOCCOCCCN*; X3 = O=C(O)CN1CCN(CC(=O)O)CCN(CC(=O)NCCCOCCOCCOCCCN*)CCN(CC(=O)O)CC1; Trp(5-Cl) = N[C@@H](Cc1c[nH]c2ccc(Cl)cc12)C(=O)O; Pyridine(2,6-diCH2) = c1cc(C[*:1])nc(C[*:2])c1; Phe(2-Cl) = N[C@@H](Cc1ccccc1Cl)C(=O)O; mXylylene = c1cc(C[*:1])cc(C[*:2])c1; X7 = c1cc(CSCCN[*:2])cc(C[*:1])c1; Hyp = O=C(O)[C@@H]1C[C@@H](O)CN1; NMeE = CN[C@@H](CCC(=O)O)C(=O)O; Suc = O=C(CCC(=O)[*:2])[*:1]; Thp = NC1(C(=O)O)CCOCC1; Aib = CC(C)(N)C(=O)O; Bn = c1ccc(C*)cc1

biological target: T1, GIPR (CHO-K1-hGIPR cells) (Homo sapiens, UniProt P48546); assay: FACS binding assay; details: competition with 20 nM GIP-057, 4° C. for 1 hour, read-out: pIC50 Category (converted)
T1 construct: host or cells: CHO-K1
T1 sequence (P48546 22-466): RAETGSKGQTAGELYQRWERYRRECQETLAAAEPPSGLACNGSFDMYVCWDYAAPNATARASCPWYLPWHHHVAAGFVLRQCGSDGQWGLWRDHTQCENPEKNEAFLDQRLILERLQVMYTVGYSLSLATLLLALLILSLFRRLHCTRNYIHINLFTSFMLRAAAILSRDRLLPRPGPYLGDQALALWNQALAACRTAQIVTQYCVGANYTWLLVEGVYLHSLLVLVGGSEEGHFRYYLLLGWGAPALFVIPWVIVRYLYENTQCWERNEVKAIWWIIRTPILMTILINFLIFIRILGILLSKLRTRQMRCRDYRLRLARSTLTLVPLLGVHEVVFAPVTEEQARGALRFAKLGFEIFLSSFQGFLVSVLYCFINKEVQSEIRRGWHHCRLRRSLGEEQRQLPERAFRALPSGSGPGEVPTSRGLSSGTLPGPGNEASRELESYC
Method in brief: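 Peptide binding read by flow cytometry as APC-channel median fluorescence, fitted with a four-parameter logistic to yield EC50 or IC50. Cells were hGIPR-transfected CHO-K1 in PBS with 1% FCS, detected with 1 μg/mL APC-streptavidin, 30 min on ice.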

Compound	IC50 [µM]
CC[C@H](C)[C@@H]1NC(=O)[C@H](CC(C)C)NC(=O)[C@H](C)NC(=O)[C@@H](NC(=O)[C@H](CC(C)C)NC(=O)[C@H](CCC(=O)O)NC(=O)[C@@H]2CCCN2C(=O)[C@H](Cc2c[nH]c3ccccc23)NC(=O)[C@H](Cc2c[nH]c3ccccc23)NC(=O)CCC(=O)O)CSCc2cccc(n2)CSC[C@@H](C(N)=O)NC1=O [GIP-257, HO-Succinyl-Trp-Trp-Pro-Glu-Leu-[Cys(2Lut)-Ala-Leu-Ile-Cys]-NH2] (Suc-WWPELCALIC-NH2; linker 6-10 via Pyridine(2,6-diCH2))	0.01 to 0.0794
CSCC[C@H](N)C(=O)N[C@@H](Cc1ccc(O)cc1)C(=O)N[C@@H](CC(=O)O)C(=O)N[C@@H](Cc1c[nH]c2ccccc12)C(=O)N[C@@H](Cc1c[nH]c2ccccc12)C(=O)N1CCC[C@H]1C(=O)N[C@@H](CCC(=O)O)C(=O)N[C@@H](CC(C)C)C(=O)N[C@H]1CSCc2cccc(c2)CSC[C@@H](C(N)=O)NC(=O)[C@H](C)NC(=O)[C@H](CC(C)C)NC(=O)[C@H](C)NC1=O [GIP-337] (H-MYDWWPELCALAC-NH2; linker 9-13 via mXylylene)	> 1
CC[C@H](C)[C@@H]1NC(=O)[C@H](CC(C)C)NC(=O)C2(CCOCC2)NC(=O)[C@@H](NC(=O)[C@@H](CC(C)C)NC(=O)[C@H](CCC(=O)O)NC(=O)[C@@H]2C[C@@H](O)CN2C(=O)[C@H](Cc2c[nH]c3ccc(Cl)cc23)NC(=O)[C@H](Cc2ccccc2Cl)NC(=O)[C@H](CC(=O)O)NC(=O)CCC(=O)NCCCOCCOCCOCCCNC(=O)CN2CCN(CC(=O)O)CCN(CC(=O)O)CCN(CC(=O)O)CC2)CSCc2cccc(n2)CSC[C@@H](C(N)=O)NC1=O [GIP-387, DOTA-Ttds-Asp-Ocf-5Clw-Hyp-Glu-leu-[Cys(2Lut)-Thp-Leu-Ile-Cys]-NH2] ({X3-Suc}-D[Phe(2-Cl)][Trp(5-Cl)][Hyp]E[dL]C[Thp]LIC-NH2; linker 7-11 via Pyridine(2,6-diCH2))	0.01 to 0.0794
CC[C@H](C)[C@@H]1NC(=O)[C@H](CC(C)C)NC(=O)[C@@H](C)NC(=O)[C@@H](NC(=O)[C@H](CC(C)C)NC(=O)[C@H](CCC(=O)O)NC(=O)[C@@H]2CCCN2C(=O)[C@H](Cc2c[nH]c3ccccc23)NC(=O)[C@H](Cc2c[nH]c3ccccc23)NC(=O)[C@H](CC(=O)O)NC(C)=O)CSCc2cccc(c2)CSCCNC1=O [GIP-250, Ac-Asp-Trp-Trp-Pro-Glu-Leu-[Cys(3MeBn)-ala-Leu-Ile-AET]] (Ac-DWWPELC[dA]LI; linker 7-C via X7)	0.01 to 0.0794
CC[C@H](C)[C@@H]1NC(=O)[C@H](CC(C)C)NC(=O)C(C)(C)NC(=O)[C@@H](NC(=O)[C@H](CC(C)C)NC(=O)[C@H](CCC(=O)O)N(C)C(=O)[C@@H]2CCCN2C(=O)[C@H](Cc2c[nH]c3ccccc23)NC(=O)[C@H](Cc2c[nH]c3ccccc23)NC(=O)[C@H](CC(=O)O)NC(C)=O)CSCc2cccc(c2)CSC[C@@H](C(=O)NCCCOCCOCCOCCCNC(=O)CCC(=O)N[C@@H](CCCCNC(=O)CN2CCN(CC(=O)O)CCN(CC(=O)O)CCN(CC(=O)O)CC2)C(N)=O)NC1=O [GIP-274, Ac-Asp-Trp-Trp-Pro-Nme-Leu-[Cys(3MeBn)-Aib-Leu-Ile-Cys]-Ttds-Lys(DOTA)-NH2] (Ac-DWWP[NMeE]LC[Aib]LIC-X5; linker 7-11 via mXylylene)	0.1 to 0.794
CC[C@H](C)[C@H](NC(=O)[C@H](CC(C)C)NC(=O)[C@H](C)NC(=O)[C@H](CSCc1ccccc1)NC(=O)[C@H](CC(C)C)NC(=O)[C@H](CCC(=O)O)NC(=O)[C@@H]1CCCN1C(=O)[C@H](Cc1c[nH]c2ccccc12)NC(=O)[C@H](Cc1c[nH]c2ccccc12)NC(=O)[C@H](CC(=O)O)NC(=O)[C@H](Cc1ccc(O)cc1)NC(=O)[C@@H](N)CCSC)C(=O)N[C@@H](CSC)C(N)=O [GIP-368] (H-MYDWWPELC(Bn)ALIC(Me)-NH2)	0.1 to 0.794
